According to patent publication US5284838A, “Use of 2,2-dimethylchroman-3-ol derivatives in the treatment of asthma” (Elf Sanofi, priority 1987, dated 1994):
Like-named read-outs stand apart in the source and are kept apart here.

Key:
Isolated Rat Portal Vein = experiment: Isolated Rat Portal Vein: inhibition of spontaneous contractile activities; type: cell-based, Male Sprague Dawley rats; details: for IC50: Rattus norvegicus, 0.25 h; for times more active than Product A: relative to Product A, isolated rat portal vein
Protocol: Male Sprague Dawley rats (250-300 g) are stunned and then bled after their throats have been cut. The portal vein, ligated in situ at two points 15 mm apart, is isolated, cut longitudinally and then mounted vertically in an experimental cell containing a physiological solution, at 37° C., of the following composition (mmol/l): NaCl:137; KCl: 5.4; MgCl2 : 1.05; CaCl2 : 1.8; NaH2 PO4 : 1.2; NAHCO3 : 15.5; glucose: 11.5, into which a mixture of gases containing 95% of oxygen and 5% of carbon dioxide is bubbled.
The vein is subjected to a tension of 500 mg. After a period of stabilization (about 1 h 30 min), the spontaneous contractile activities are recorded with the aid of an isometric sensor. Each measurement is performed successively on 4 preparations.
The results are expressed in the form of the molar concentration which causes a 50 per cent inhibition of the spontaneous contractile activities (IC50).

[1] = test system: Guinea-pig Papillary Muscle; experiment: Guinea-pig Papillary Muscle: ventricular action potential; type: cell-based, Male Albino Charles River guinea-pigs; details: Cavia porcellus, 0.5 h; 36° C., 60 beats per minute, 30 minutes of perfusion per concentration; read-out: Duration of the action potential: IC50 (50 per cent reduction in the duration of the AP)
Protocol: Male Albino Charles River guinea-pigs (300-400 g) are stunned and then bled after their throats have been cut. The heart is isolated and opened and the right papillary muscle is excised and then kept alive in an experimental cell containing a physiological solution at 36° C. (composition described above).
The preparation is stimulated with the aid of a bipolar electrode connected to a stimulator (frequency=60 beats per minute). The ventricular action potential is measured by the conventional microelectrode method. The characteristic parameters were measured on the action potentials (AP) before and after the introduction of the test product at 3 successive increasing concentrations (30 minutes of perfusion per concentration). The concentration which produces a 50 per cent reduction in the duration of the AP is indicated (IC50).

[2] = test system: Vigilant Spontaneously Hypertensive Rats (SHR); experiment: Antihypertensive Activity on Vigilant Spontaneously Hypertensive Rats (SHR); type: in vivo, male SHR (of the Wistar strain) rats; details: for duration of action compared with Product A: p.o.
Protocol: The experiment is performed on male SHR (of the Wistar strain) aged between 11 and 12 weeks; under pentobarbital anesthesia, a catheter is implanted in a carotid artery on the day before the experiment. In the experiment, the diastolic pressure (DP) and systolic pressure (SP) of the vigilant animals are recorded continuously 1 hour before and up to 2 hours after administration of the product. The heart rate (HR) is determined from the pulse pressure and recorded continuously for the same time.
The products were administered orally in a volume of 2 ml per 100 g of body weight after suspension in a 5% aqueous solution of gum arabic.

Vigilant Dogs = experiment: Antiarrhythmic Activity on Vigilant Dogs; type: in vivo; details: orally
Protocol: The method used is that described by Dupuis et al. (Br. J. Pharmacol., 1976, 58, p. 409), in which an acute infarction is caused by the insertion of a copper spiral into the coronary circulation, with the thorax closed off. The electrocardiogram is measured by telemetry and the extrasystoles are analyzed and counted automatically while the animal is being monitored by an internal television circuit. The products were administered orally to animals presenting at least 50 percent of extrasystoles.

mice = experiment: Acute toxicity on mice by oral administration; type: in vivo; details: 1000 mg/kg, 10 mice
[3] = 37° C., 15 min per concentration, read-out: IC50 of the spontaneous contractile activities of isolated rat portal vein
[4] = unit inferred, read-out: IC50 values equal to or less than (isolated rat portal vein)

Row | SMILES | IC50 (Isolated Rat Portal Vein; [3]) | IC50 [1] | Maximum decrease in mean blood pressure (±s.e.) ([2]; 0.10 mg/kg p.o.) | IC50 (Isolated Rat Portal Vein; [4]) | times more active than Product A (Isolated Rat Portal Vein) | Maximum decrease in mean blood pressure (±s.e.) ([2]; 0.03 mg/kg p.o.) | further results
1 | CC1(C)Oc2ccc(C#N)cc2[C@@H](n2ccccc2=O)[C@@H]1O (relative stereo) [SR 44 709, trans-6-Cyano-4-(I,2-dihydro-2-oxopyrid-1-yl)2,2-dimethylchroman-3-ol] | 90 nM | 20000 nM | 39 ± 12 mm of mercury |  |  |  | Maximum decrease in mean blood pressure (±s.e.) ([2]; 0.06 mg/kg p.o.): 21 ± 5 mm of mercury; antiarrhythmic activity (reducing the number of extrasystoles or restoring a sinus rhythm) (Vigilant Dogs; 1 mg/kg): substantial antiarrhythmic activity; acute toxicity: survival / death of the animals (mice): all the animals survived
2 | Cc1ccc(=O)n([C@@H]2c3cc(C#N)ccc3OC(C)(C)[C@H]2O)n1 (relative stereo) [SR 45 225, trans-6-Cyano-4-(I,6-dihydro-3-methyl-6-oxopyridazin-1-yl)-2,2-dimethylchroman-3-ol] | 88 nM |  |  |  |  |  | 
3 | Cc1cc(=O)n([C@@H]2c3cc(C#N)ccc3OC(C)(C)[C@H]2O)nc1O (relative stereo) [SR 45 218, trans-6-Cyano-4-(I,6-dihydro-3-hydroxy-4-methyl-6-oxopyridazin-1-yl)-2,2-dimethylchroman-3-ol] | 20 nM |  |  | ≤ 34 nM | at least 5 times |  | 
4 | CC1(C)Oc2ccc(C#N)cc2[C@@H](N2CCCC2=O)[C@@H]1O (relative stereo) [Product A, trans-6-Cyano-4-(2-oxopyrrolidin-1-yl)-2,2-dimethylchroman-3-ol, reference compound] | 68 nM | 16000 nM | 30 ± 10 mm of mercury |  |  | 16 ± 5 mm of mercury | acute toxicity: survival / death of the animals (mice): all 10 animals died
5 | CC1(C)Oc2ccc(C#N)cc2[C@@H](n2ccc(O)cc2=O)[C@@H]1O (relative stereo) [SR 44 793, trans-6-Cyano-4-(I,2-dihydro-4-hydroxy-2-oxopyrid-1-yl)-2,2-dimethylchroman-3-ol] | 34 nM | 2700 nM | 50 ± 9 mm of mercury | ≤ 34 nM | at least 5 times | 22 ± 2 mm of mercury | Maximum decrease in mean blood pressure (±s.e.) ([2]; 0.06 mg/kg p.o.): 26 ± 3 mm of mercury; duration of action compared with Product A [2]: longer duration of action than Product A; antiarrhythmic activity (reducing the number of extrasystoles or restoring a sinus rhythm) (Vigilant Dogs; between 0.1 and 0.5 mg/kg): substantial antiarrhythmic activity
6 | CC1(C)Oc2ccc(C#N)cc2[C@@H](n2nc(O)ccc2=O)[C@@H]1O (relative stereo) [SR 44 994, trans-6-Cyano-4-(I,6-dihydro-3-hydroxy-6-oxopyridazin-1-yl)-2,2-dimethylchroman-3-ol] | 9 nM | 4000 nM | 37 ± 4 mm of mercury | ≤ 34 nM | at least 5 times | 14 ± 0 mm of mercury | duration of action compared with Product A [2]: longer duration of action than Product A
7 | CC1(C)Oc2ccc(C#N)cc2[C@@H](n2ccc(Cl)cc2=O)[C@@H]1O (relative stereo) [SR 45 012] | 26 nM |  |  | ≤ 34 nM | at least 5 times |  | 
8 | Cc1ccn([C@@H]2c3cc(C#N)ccc3OC(C)(C)[C@H]2O)c(=O)c1 (relative stereo) [SR 45 135] | 80 nM |  |  |  |  |  | 
9 | CC1(C)Oc2ccc(C#N)cc2[C@@H](n2ncccc2=O)[C@@H]1O (relative stereo) [SR 44 758, trans-6-Cyano-4-(1,6-dihydro-6-oxopyridazin-1-yl)-2,2-dimethylchroman-3-ol] | 130 nM |  | 33 ± 5 mm of mercury |  |  | 12 ± 2 mm of mercury | 
10 | CC1(C)Oc2ccc(C#N)cc2[C@@H](n2ccncc2=O)[C@@H]1O (relative stereo) [SR 45 067] | 77 nM |  |  |  |  |  | 
11 | CC1(C)Oc2ccc(C#N)cc2[C@@H](n2ccc(F)cc2=O)[C@@H]1O (relative stereo) [SR 45 311, trans-6-Cyano-4-(1,2-dihydro-4-fluoro-2-oxopyrid-1-yl)-2,2-dimethylchroman-3-ol] | 50 nM |  |  |  |  |  | 
12 | Cc1cc(O)nn([C@@H]2c3cc(C#N)ccc3OC(C)(C)[C@H]2O)c1=O (relative stereo) [SR 45 209, trans-6-Cyano-4-(I,6-dihydro-3-hydroxy-5-methyl-6-oxopyridazin-1-yl)-2,2-dimethylchroman-3-ol] | 58 nM |  |  |  |  |  | 
